Here are results for 28 compounds from ChEMBL document CHEMBL1146692, “Highly potent PDE4 inhibitors with therapeutic potential” (Bioorg Med Chem Lett, 2004).

Some results are limits rather than exact numbers.

The first assay relates to Rattus norvegicus. Nature of the assay: Inhibition of gastric emptying in rats after peroral administration. Conditions: Stomach, po, read-out: ID50 (the source's name). The format is functional.
In the case of `N#CC1(c2ccc(OC(F)F)c(OC3CCCC3)c2)CCN(CC(=O)O)CC1`, the ED50 was found to be 4.7 mg/kg.

On to `COc1ccc(C2(C#N)CCN(CC(=O)NO)CC2)cc1OCC1CC1`, for which the ED50 came out at 0.3 mg/kg.

For the compound `CCOc1cc(C2(C#N)CCN(CC(=O)NO)CC2)ccc1OC`, the ED50 turned out to be 0.7 mg/kg.

Take `COc1ccc(C2(C#N)CCN(CC(=O)NO)CC2)cc1OC1CCCC1`: the ED50 was found to be 0.3 mg/kg.

As to `COc1ccc([C@]2(C#N)CC[C@@H](C(=O)O)CC2)cc1OC1CCCC1` [CILOMILAST], the ED50 came out at 5.7 mg/kg.

The next assay concerns Rattus norvegicus. In words: Inhibition of LPS-induced TNF-alpha production in rats 0.5 hr after peroral administration. The format is functional. The conditions noted are these: po, read-out: ID50 (the source's name).
Consider `COc1ccc(C2(C#N)CCN(CC(=O)NO)CC2)cc1OC1CCC1`, for which the ED50 was 0.03 mg/kg.

Regarding `CCOc1ccc(C2(C#N)CCN(CC(=O)NO)CC2)cc1OC1CCCC1`, the ED50 was 0.7 mg/kg.

Take `N#CC1(c2ccc(OC(F)F)c(OC3CCCC3)c2)CCN(CC(=O)O)CC1`: the ED50 worked out at 1.1 mg/kg.

Take `COc1ccc(C2(C#N)CCN(CC(=O)NO)CC2)cc1OC(C)C`: the ED50 is 0.09 mg/kg.

`COc1ccc(C2(C#N)CCN(C3(C(=O)NO)CC3)CC2)cc1OC1CCCC1`: the ED50 came out at 2 mg/kg.

As to `COc1ccc(C2(C#N)CCN(CC(=O)NO)CC2)cc1OCC1CC1`, the ED50 turned out to be 0.03 mg/kg.

Consider `CCOc1cc(C2(C#N)CCN(CC(=O)NO)CC2)ccc1OC`, for which the ED50 amounted to 0.04 mg/kg.

With `N#CC1(c2ccc(OC(F)F)c(OC3CCCC3)c2)CCN(CC(=O)NO)CC1`, the ED50 is 0.02 mg/kg.

Regarding `COc1ccc(C2(C#N)CCN(CC(=O)NO)CC2)cc1OC`, the ED50 worked out at 0.23 mg/kg.

Consider `COc1ccc(C2(C#N)CCN(CC(=O)NO)CC2)cc1OC1CCCC1`, for which the ED50 was 0.04 mg/kg.

For the compound `COc1ccc([C@]2(C#N)CC[C@@H](C(=O)O)CC2)cc1OC1CCCC1` [CILOMILAST], the ED50 stood at 1.7 mg/kg.

The next assay has as its system Rattus norvegicus. In words: Inhibition of LPS-induced TNF-alpha production in rats at 1 mg/kg peroral dose after 0.5 hr. The format is functional. The conditions noted are these: route oral.
Regarding `COc1ccc(C2(C#N)CCN(CC(=O)O)CC2)cc1OCC1CC1`, the inhibition in vivo (usually the relative decrease from the control value, in per cent) at 1 mg/kg came to 12%.

Compound `CCOc1cc(C2(C#N)CCN(CC(=O)O)CC2)ccc1OC` registered an inhibition in vivo at 1 mg/kg of 0%.

For another assay, the system named is Cavia porcellus. In words: Inhibition of SRS-A-mediated bronchoconstriction and airway microvascular leakage in sensitized guinea pigs at 0.15 mg/kg 1 hr after oral dose. The format is functional. The conditions noted are these: Lung, read-out: ID50 (the source's name).
For the compound `COc1ccc(C2(C#N)CCN(CC(=O)NO)CC2)cc1OCC1CC1`, the ED50 worked out at 0.3 mg/kg.

Turning to `CCOc1cc(C2(C#N)CCN(CC(=O)NO)CC2)ccc1OC`, the ED50 came to 0.04 mg/kg.

Take `COc1ccc(C2(C#N)CCN(CC(=O)NO)CC2)cc1OC1CCCC1`: the ED50 was 0.3 mg/kg.

As for `COc1ccc([C@]2(C#N)CC[C@@H](C(=O)O)CC2)cc1OC1CCCC1` [CILOMILAST], the ED50 came to 4.5 mg/kg.

A further assay deals with Cavia porcellus. In words: Inhibition of SRS-A-mediated bronchoconstriction and airway microvascular leakage in sensitized guinea pigs at 0.5 mg/kg 1 hr after oral dose. The conditions noted are these: Lung, read-out: ID50 (the source's name). The format is functional.
In the case of `N#CC1(c2ccc(OC(F)F)c(OC3CCCC3)c2)CCN(CC(=O)O)CC1`, the ED50 amounted to 4.2 mg/kg.

The test system of the next assay is Rattus norvegicus. In words: Inhibition of LPS-induced TNF-alpha production in rats at 3 mg/kg peroral dose after 0.5 hr. The format is functional. Conditions: route oral.
`COc1ccc(C2(C#N)CCN([C@H](C)C(=O)NO)CC2)cc1OC1CCCC1`: the inhibition in vivo at 3 mg/kg amounted to 26%.

The compound `COc1ccc(C2(C#N)CCN(CC(=O)O)CC2)cc1OC1CCCC1` yielded an inhibition in vivo at 3 mg/kg of 74%.

Consider `COc1ccc(C2(C#N)CCN([C@@H](C)C(=O)NO)CC2)cc1OC1CCCC1`, for which the inhibition in vivo at 3 mg/kg was found to be 49%.

As to `COc1ccc(C2(C#N)CCN(CC(=O)O)CC2)cc1OC1Cc2ccccc2C1`, testing at 3 mg/kg gave an inhibition in vivo of 29%.

Another assay is filed under the species Homo sapiens. In words: Inhibition of LPS-induced TNF-alpha production in human whole blood.
Conditions: not given
The format is functional, organism-based.
`N#CC1(c2ccc(OC(F)F)c(OC3CCCC3)c2)CCN(CC(=O)O)CC1`: the IC50 (commonly the midpoint of a concentration-inhibition curve) amounted to 840 nM.

Consider `COc1ccc(C2(C#N)CCN(CC(=O)NO)CC2)cc1OCC1CC1`, for which the IC50 came out at 2.1 nM.

`CCOc1cc(C2(C#N)CCN(CC(=O)NO)CC2)ccc1OC` came in with an IC50 of 5 nM.

`COc1ccc(C2(C#N)CCN(CC(=O)NO)CC2)cc1OC1CCCC1` came in with a half-inhibitory concentration (IC50) of 8.9 nM.

The next assay has as its target Phosphodiesterase 4 (Homo sapiens, UniProt P27815+Q08499+Q07343+Q08493). Nature of the assay: Inhibition of phosphodiesterase 4 (PDE4) prepared from human U937 cells. The format is cell-based. The conditions noted are these: u-937.
Turning to `COc1ccc(C2(C#N)CCN(CC(=O)NO)CC2)cc1OC1CCC1`, the half-maximal inhibitory concentration (IC50) is listed as 0.18 nM.

In the case of `CCOc1ccc(C2(C#N)CCN(CC(=O)O)CC2)cc1OC1CCCC1`, the IC50 was determined as 2500 nM.

Take `CC(C)Oc1ccc(C2(C#N)CCN(CC(=O)NO)CC2)cc1OC1CCCC1`: the IC50 was over 30 nM.

With `COc1ccc(C2(C#N)CCN([C@H](C)C(=O)NO)CC2)cc1OC1CCCC1`, the IC50 is recorded as 0.91 nM.

On to `COc1ccc(C2(C#N)CCN([C@H](C)C(=O)O)CC2)cc1OC1CCCC1`, for which the IC50 was over 300 nM.

As for `COc1ccc(C2(C#N)CCN(CC(=O)O)CC2)cc1OC1CCC1`, the half-maximal inhibitory concentration (IC50) is over 100 nM.

`COc1ccc(C2(C#N)CCN(CC(=O)O)CC2)cc1OC1CCCC1` registered a concentration for half-maximal inhibition (IC50) of 66 nM.

For the compound `CCOc1ccc(C2(C#N)CCN(CC(=O)NO)CC2)cc1OC1CCCC1`, the IC50 came to 6.2 nM. Against the preceding compound, the IC50 is about 11-fold lower.

In turn, `CC(C)Oc1ccc(C2(C#N)CCN(CC(=O)O)CC2)cc1OC1CCCC1` returned an IC50 of over 1000 nM.

Turning to `N#CC1(c2ccc(OC(F)F)c(OC3CCCC3)c2)CCN(CC(=O)O)CC1`, the IC50 was determined as 65 nM.

`COc1ccc(C2(C#N)CCN(CC(=O)NO)CC2)cc1OC(C)C` returned an IC50 of 1 nM. This IC50 is about 65-fold lower than that of the compound before.

The compound `COc1ccc(C2(C#N)CCN(C(C)(C)C(=O)O)CC2)cc1OC1CCCC1` displayed an IC50 of over 1000 nM.

With `COc1ccc(C2(C#N)CCN(C3(C(=O)O)CC3)CC2)cc1OC1CCCC1`, the half-inhibitory concentration (IC50) was over 1000 nM.

With `COc1ccc(C2(C#N)CCN([C@@H](C)C(=O)NO)CC2)cc1OC1CCCC1`, the IC50 is listed as 5.9 nM.

`COc1ccc(C2(C#N)CCN([C@@H](C)C(=O)O)CC2)cc1OC1CCCC1` registered a half-maximal inhibitory concentration (IC50) of over 300 nM.

Compound `COc1ccc(C2(C#N)CCN(CC(=O)O)CC2)cc1OCC1CC1` came in with an IC50 of over 100 nM.

`COc1ccc(C2(C#N)CCN(CC(=O)O)CC2)cc1OC1Cc2ccccc2C1` gave an IC50 of 67 nM.

On to `COc1ccc(C2(C#N)CCN(C3(C(=O)NO)CC3)CC2)cc1OC1CCCC1`, for which the IC50 is recorded as 4.6 nM.

On to `COc1ccc(C2(C#N)CCN(CC(=O)NO)CC2)cc1OCC1CC1`, for which the IC50 came out at 0.29 nM.

`CCOc1cc(C2(C#N)CCN(CC(=O)NO)CC2)ccc1OC`: the IC50 amounted to 0.52 nM. Compared with the last compound, the IC50 is about 1.8-fold higher.

`COc1ccc(C2(C#N)CCN(CC(=O)O)CC2)cc1OC(C)C` gave a 50% inhibitory concentration (IC50) of over 100 nM.

In the case of `N#CC1(c2ccc(OC(F)F)c(OC3CCCC3)c2)CCN(CC(=O)NO)CC1`, the IC50 worked out at 0.051 nM.

As for `COc1ccc(C2(C#N)CCN(CC(=O)O)CC2)cc1OC`, the concentration for half-maximal inhibition (IC50) is recorded as over 100 nM.

For the compound `COc1ccc(C2(C#N)CCN(C(C)(C)C(=O)NO)CC2)cc1OC1CCCC1`, the IC50 is 34 nM.

On to `COc1ccc(C2(C#N)CCN(CC(=O)NO)CC2)cc1OC`, for which the half-maximal inhibitory concentration (IC50) was determined as 4.7 nM.

`COc1ccc(C2(C#N)CCN(CC(=O)NO)CC2)cc1OC1CCCC1` showed an IC50 of 0.08 nM. This IC50 is about 59-fold lower than that of the compound before.

The compound `CCOc1cc(C2(C#N)CCN(CC(=O)O)CC2)ccc1OC` gave an IC50 of over 100 nM.
